Measurements taken from the supplement of paper PMC10307832.

Experiments:
Assay in all cases: relative viability (nuclei count vs DMSO), 5 days (fraction); higher = more cells survive
Dinaciclib + Decitabine = compound: CCc1cnn2c(NCc3ccc[n+]([O-])c3)cc(N3CCCC[C@H]3CCO)nc12 [Dinaciclib] + Nc1ncn([C@H]2C[C@H](O)[C@@H](CO)O2)c(=O)n1 [Decitabine] (partner 2 µM)
Outline: (§1)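 For relative viability, nuclei counts in treated wells were divided by those in vehicle wells. Lung cancer cell lines had been pin-tool dosed in 1536-well plates the day after seeding and cultured for 5 days, then fixed and stained in one step (final 0.05% Triton X-100, 1% formaldehyde, 1 ug/ml Hoechst) and imaged at 4×. Doses were one drug alone or a fixed anchor-drug dose plus five library-drug doses (not always all listed) in √10 steps, and values are duplicate-plate medians.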

Dinaciclib + Luminespib = compound: CCc1cnn2c(NCc3ccc[n+]([O-])c3)cc(N3CCCC[C@H]3CCO)nc12 [Dinaciclib] + CCNC(=O)c1noc(-c2cc(C(C)C)c(O)cc2O)c1-c1ccc(CN2CCOCC2)cc1 [Luminespib] (partner 0.01 µM)
Outline: as §1

Dinaciclib + Trametinib = compound: CCc1cnn2c(NCc3ccc[n+]([O-])c3)cc(N3CCCC[C@H]3CCO)nc12 [Dinaciclib] + CC(=O)Nc1cccc(-n2c(=O)n(C3CC3)c(=O)c3c(Nc4ccc(I)cc4F)n(C)c(=O)c(C)c32)c1 [Trametinib] (partner 0.02 µM)
Outline: as §1

Dinaciclib + Navitoclax = compound: CCc1cnn2c(NCc3ccc[n+]([O-])c3)cc(N3CCCC[C@H]3CCO)nc12 [Dinaciclib] + CC1(C)CCC(c2ccc(Cl)cc2)=C(CN2CCN(c3ccc(C(=O)NS(=O)(=O)c4ccc(N[C@H](CCN5CCOCC5)CSc5ccccc5)c(S(=O)(=O)C(F)(F)F)c4)cc3)CC2)C1 [Navitoclax] (partner 0.5 µM)
Outline: as §1

Dinaciclib + AZD7762 = compound: CCc1cnn2c(NCc3ccc[n+]([O-])c3)cc(N3CCCC[C@H]3CCO)nc12 [Dinaciclib] + NC(=O)Nc1cc(-c2cccc(F)c2)sc1C(=O)N[C@H]1CCCNC1 [AZD7762] (partner 0.2 µM)
Outline: as §1

Cell Line	relative viability (Dinaciclib + Decitabine; first compound 0.009487 µM)	relative viability (Dinaciclib + Decitabine; first compound 0.03 µM)	relative viability (Dinaciclib + Decitabine; first compound 0.09487 µM)	relative viability (Dinaciclib + Decitabine; first compound 0.3 µM)	relative viability (Dinaciclib + Luminespib; first compound 0.009487 µM)	relative viability (Dinaciclib + Luminespib; first compound 0.03 µM)	relative viability (Dinaciclib + Luminespib; first compound 0.09487 µM)	relative viability (Dinaciclib + Luminespib; first compound 0.3 µM)	relative viability (Dinaciclib + Trametinib; first compound 0.009487 µM)	relative viability (Dinaciclib + Trametinib; first compound 0.03 µM)	relative viability (Dinaciclib + Trametinib; first compound 0.09487 µM)	relative viability (Dinaciclib + Trametinib; first compound 0.3 µM)	relative viability (Dinaciclib + Navitoclax; first compound 0.009487 µM)	relative viability (Dinaciclib + Navitoclax; first compound 0.03 µM)	relative viability (Dinaciclib + Navitoclax; first compound 0.09487 µM)	relative viability (Dinaciclib + Navitoclax; first compound 0.3 µM)	relative viability (Dinaciclib + AZD7762; first compound 0.009487 µM)	relative viability (Dinaciclib + AZD7762; first compound 0.03 µM)	relative viability (Dinaciclib + AZD7762; first compound 0.09487 µM)	relative viability (Dinaciclib + AZD7762; first compound 0.3 µM)
NCI-H661	0.472	0.181	0.158	0.196	0.906	0.195	0.169	0.148	0.512	0.162	0.17	0.161								
NCI-H1650	0.472	0.258	0.135	0.12	0.226	0.204	0.158	0.172	0.516	0.163	0.151	0.119	1.17	0.144	0.0928	0.139				
NCI-H1703													1.19	0.117	0.0887	0.114	0.132	0.125	0.0862	0.087
NCI-H2009	0.41	0.294	0.081	0.0958	0.649	0.0986	0.101	0.101	0.288	0.0748	0.0773	0.0564	1.01	0.515	0.0255	0.031				
NCI-H2023	0.157	0.0607	0.0544	0.0524	0.561	0.058	0.055	0.0469	0.382	0.078	0.0799	0.0821	0.929	0.0702	0.0635	0.0619				
NCI-H2228					0.147	0.127	0.116	0.0939	0.496	0.11	0.0915	0.116	0.882	0.174	0.0319	0.0438				
NCI-H2342	0.78	0.583	0.269	0.284	0.715	0.511	0.27	0.255	0.82	0.847	0.343	0.31					0.627	0.572	0.206	0.225
SK-LU-1	0.64	0.234	0.211	0.227	0.198	0.138	0.115	0.118	0.517	0.176	0.205	0.186	0.746	0.0883	0.0998	0.11				
SK-MES-1	0.362	0.157	0.156	0.166	0.428	0.131	0.167	0.152	0.536	0.175	0.192	0.178	1.26	0.131	0.114	0.119				
SW 1573	0.314	0.0932	0.065	0.0758	0.126	0.0666	0.0548	0.0868	0.404	0.0877	0.0832	0.0755	0.919	0.0461	0.0459	0.0437				
UMC-11	0.531	0.197	0.2	0.169	0.271	0.177	0.158	0.174	0.253	0.172	0.132	0.146	0.133	0.103	0.113	0.102				
